By IC50 is commonly meant the midpoint of a concentration-inhibition curve.

SMILES strings stand for the structures. Counter-ions that a name gives are not always drawn. Some results are limits rather than exact numbers.

In patent US11319303B2 (WIGEN BIOMEDICINE TECHNOLOGY (SHANGHAI) CO., LTD., priority 2017, dated 2022) one finds IC50 data, which are given here for 33 molecules.

In this experiment the target is LC3B (Homo sapiens, UniProt Q9GZQ8). The experiment is described as follows: Fluorescence Polarization (FP) Assay: displacement of FITC-labeled peptide from GST-LC3B. It is filed as binding. The settings on record: Fluorescence Polarization assay; GST-LC3B 180 nM, FITC-labeled peptide 18 nM, 25° C.; read-out: IC50. The protocol: The compounds of the present invention for regulating the autophagy-related protein LC3B were tested by Fluorescence Polarization (FP) Assay.
Fluorescence Polarization (FP) Assay Test
For the molecule `O=C1CC(c2nccs2)CC(=O)C1=CNCCN1CCN(CCO)CC1` (stereo not drawn) [Compound 57, 2-(((2-(4-(2-hydroxyethyl)piperazin-1-yl)ethyl)amino)methylene)-5-(thiazol-2-yl) cyclohexane-1,3-dione], the IC50 lay in the range of 15 to 100 µM.

`O=C1CC(c2c[nH]cn2)CC(=O)C1=CNCCN1CCN(CCO)CC1` (stereo not drawn) [Compound 59, 2-(((2-(4-(2-hydroxyethyl)piperazin-1-yl)ethyl)amino)methylene)-5-(1H-imidazol-4-yl) cyclohexane-1,3-dione]: the IC50 was 100 to 1000 µM.

Regarding `O=C1CC(c2c3ccccc3cc3ccccc23)CC(=O)C1=CNCCN1CCN(CCO)CC1` (stereo not drawn) [Compound 61, 5-(anthracen-9-yl)-2-(((2-(4-(2-hydroxyethyl)piperazin-1-yl)ethyl)amino)methylene) cyclohexane-1,3-dione], the IC50 was less than 3 µM.

For the molecule `O=C1CC(c2ccnc3ccccc23)CC(=O)C1=CNCCN1CCN(CCO)CC1` (stereo not drawn) [Compound 62, 2-(((2-(4-(2-hydroxyethyl)piperazin-1-yl)ethyl)amino)methylene)-5-(quinolin-4-yl) cyclohexane-1,3-dione], the IC50 fell in the range of 3 to 15 µM.

Consider `CCC(CC)C1CC(=O)C(=CNCCN2CCN(CCO)CC2)C(=O)C1` (stereo not drawn) [Compound 63, 2-(((2-(4-(2-hydroxyethyl)piperazin-1-yl)ethyl)amino)methylene)-5-(pentan-3-yl) cyclohexane-1,3-dione], for which the IC50 lay in the range of 15 to 100 µM.

As for `O=C1CC(C2CCOCC2)CC(=O)C1=CNCCN1CCN(CCO)CC1` (stereo not drawn) [Compound 64, 2-(((2-(4-(2-hydroxyethyl)piperazin-1-yl)ethyl)amino)methylene)-5-(tetrahydro-2H-pyran-4-yl)cyclohexane-1,3-dione], the IC50 lay within 100 to 1000 µM.

Turning to `CS(=O)(=O)c1ccc(C2CC(=O)C(=CNCCN3CCN(CCO)CC3)C(=O)C2)cc1` (stereo not drawn) [Compound 65, 2-(((2-(4-(2-hydroxyethyl)piperazin-1-yl)ethyl)amino)methylene)-5-(4-(methylsulfonyl)phenyl) cyclohexane-1,3-dione], the IC50 fell in the range of 100 to 1000 µM.

On to `O=C1CC(c2csc3ccccc23)CC(=O)C1=CNCCN1CCN(CCO)CC1` (stereo not drawn) [Compound 66, 5-(benzo[b]thiophen-3-yl)-2-(((2-(4-(2-hydroxyethyl)piperazin-1-yl)ethyl)amino)methylene) cyclohexane-1,3-dione], for which the IC50 was less than 3 µM.

Consider `O=C1CC(C2CC2)CC(=O)C1=CNCCN1CCN(CCO)CC1` (stereo not drawn) [Compound 67, 5-cyclopropyl-2-(((2-(4-(2-hydroxyethyl)piperazin-1-yl)ethyl)amino)methylene) cyclohexane-1,3-dione], for which the IC50 is 100 to 1000 µM.

With `O=C1CC(c2cccc3[nH]ccc23)CC(=O)C1=CNCCN1CCN(CCO)CC1` (stereo not drawn) [Compound 68, 2-(((2-(4-(2-hydroxyethyl)piperazin-1-yl)ethyl)amino)methylene)-5-(1H-indol-4-yl) cyclohexane-1,3-dione], the IC50 was less than 3 µM.

Turning to `CC(c1ccccc1)C1CC(=O)C(=CNCCN2CCN(CCO)CC2)C(=O)C1` (stereo not drawn) [Compound 69, 2-(((2-(4-(2-hydroxyethyl)piperazin-1-yl)ethyl)amino)methylene)-5-(1-phenylethyl) cyclohexane-1,3-dione], the IC50 is 15 to 100 µM.

`O=C1CC(C2CCNCC2)CC(=O)C1=CNCCN1CCN(CCO)CC1` (stereo not drawn) [Compound 70, 2-(((2-(4-(2-hydroxyethyl)piperazin-1-yl)ethyl)amino)methylene)-5-(piperidin-4-yl) cyclohexane-1,3-dione HCl salt]: the IC50 lay within 100 to 1000 µM.

Regarding `O=C1CC(c2ccc(OCCOc3ccncc3)cc2)CC(=O)C1=CNCCN1CCN(CCO)CC1` (stereo not drawn) [Compound 71, 2-(((2-(4-(2-hydroxyethyl)piperazin-1-yl)ethyl)amino)methylene)-5-(4-(2-(pyridin-4-yloxy)ethoxy)phenyl) cyclohexane-1,3-dione], the half-maximal inhibitory concentration (IC50) lay within 15 to 100 µM.

On to `O=C1CC(c2ccc(-c3ccncc3)s2)CC(=O)C1=CNCCN1CCN(CCO)CC1` (stereo not drawn) [Compound 72, 2-(((2-(4-(2-hydroxyethyl)piperazin-1-yl)ethyl)amino)methylene)-5-(5-(pyridin-4-yl)thiophen-2-yl)cyclohexane-1,3-dione], for which the IC50 is less than 3 µM.

Turning to `O=C1CC(c2ccc(-c3ccncc3)cc2)CC(=O)C1=CNCCN1CCN(CCO)CC1` (stereo not drawn) [Compound 73, 2-(((2-(4-(2-hydroxyethyl)piperazin-1-yl)ethyl)amino)methylene)-5-(4-(pyridin-4-yl)phenyl) cyclohexane-1,3-dione], the IC50 is less than 3 µM.

For the molecule `CN(C)C=Nc1nc2c(C3CC(=O)C(=CNCCN4CCN(CCO)CC4)C(=O)C3)cccc2s1` (stereo not drawn) [Compound 74, N′-(4-(4-(((2-(4-(2-hydroxyethyl)piperazin-1-yl)ethyl)amino)methylene)-3,5-dioxocyclohexyl)benzo[d]thiazol-2-yl)-N,N-dimethyl-formimidamide], the IC50 is less than 3 µM.

Regarding `O=C1CC(c2cccc(Oc3ccncc3)c2)CC(=O)C1=CNCCN1CCN(CCO)CC1` (stereo not drawn) [Compound 75, 2-(((2-(4-(2-hydroxyethyl)piperazin-1-yl)ethyl)amino)methylene)-5-(3-(pyridin-4-yloxy)phenyl) cyclohexane-1,3-dione], the IC50 is 3 to 15 µM.

`CCOc1ncnc2c1ncn2-c1ccc(C2CC(=O)C(=CNCCN3CCN(CCO)CC3)C(=O)C2)cc1` (stereo not drawn) [Compound 76, 5-(4-(6-ethoxy-9H-purin-9-yl)phenyl)-2-(((2-(4-(2-hydroxyethyl)piperazin-1-yl)ethyl)amino)methylene) cyclohexane-1,3-dione]: the IC50 lay in the range of 15 to 100 µM.

On to `O=C1CC(c2ccc(C(=O)N3CCOCC3)cc2)CC(=O)C1=CNCCN1CCN(CCO)CC1` (stereo not drawn) [Compound 77, 2-(((2-(4-(2-hydroxyethyl)piperazin-1-yl)ethyl)amino)methylene)-5-(4-(morpholine-4-carbonyl)phenyl) cyclohexane-1,3-dione], for which the IC50 fell in the range of 15 to 100 µM.

For `O=C1CC([C@]23C[C@H]4C[C@H](C[C@H](C4)C2)C3)CC(=O)C1=CNCCN1CCN(CCO)CC1` (stereo partly drawn) [Compound 78], the IC50 lay within 15 to 100 µM.

Consider `CN1CCN(c2ccc(C3CC(=O)C(=CNCCN4CCN(CCO)CC4)C(=O)C3)cn2)CC1` (stereo not drawn) [Compound 79, 2-(((2-(4-(2-hydroxyethyl)piperazin-1-yl)ethyl)amino)methylene)-5-(6-(4-methylpiperazin-1-yl)pyridin-3-yl) cyclohexane-1,3-dione], for which the IC50 fell in the range of 100 to 1000 µM.

For `COCCOc1cc(C2CC(=O)C(=CNCCN3CCN(CCO)CC3)C(=O)C2)ccc1OC` (stereo not drawn) [Compound 80, 2-(((2-(4-(2-hydroxyethyl)piperazin-1-yl)ethyl)amino)methylene)-5-(4-methoxy-3-(2-methoxyethoxy)phenyl) cyclohexane-1,3-dione], the IC50 was in the range of 15 to 100 µM.

`O=C1CC(c2ccc(-c3nccs3)cc2)CC(=O)C1=CNCCN1CCN(CCO)CC1` (stereo not drawn) [Compound 81, 2-(((2-(4-(2-hydroxyethyl)piperazin-1-yl)ethyl)amino)methylene)-5-(4-(thiazol-2-yl)phenyl) cyclohexane-1,3-dione]: the IC50 was 15 to 100 µM.

Turning to `O=C1CC(c2ccc(-n3ccnc3)nc2)CC(=O)C1=CNCCN1CCN(CCO)CC1` (stereo not drawn) [Compound 82, 5-(6-(1H-imidazol-1-yl)pyridin-3-yl)-2-(((2-(4-(2-hydroxyethyl)piperazin-1-yl)ethyl)amino)methylene) cyclohexane-1,3-dione], the IC50 lay within 15 to 100 µM.

`O=C1CC(c2ccc(Nc3nccs3)nc2)CC(=O)C1=CNCCN1CCN(CCO)CC1` (stereo not drawn) [Compound 83, 2-(((2-(4-(2-hydroxyethyl)piperazin-1-yl)ethyl)amino)methylene)-5-(6-(thiazol-2-ylamino)pyridin-3-yl)cyclohexane-1,3-dione]: the IC50 fell in the range of 15 to 100 µM.

In the case of `COCCN1c2ccccc2Sc2cc(C3CC(=O)C(=CNCCN4CCN(CCO)CC4)C(=O)C3)ccc21` (stereo not drawn) [Compound 84, 2-(((2-(4-(2-hydroxyethyl)piperazin-1-yl)ethyl)amino)methylene)-5-(10-(2-methoxyethyl)-10H-phenothiazin-3-yl)cyclohexane-1,3-dione], the IC50 fell in the range of 15 to 100 µM.

As for `Nc1nc2c(C3CC(=O)C(=CNCCN4CCN(CCO)CC4)C(=O)C3)cccc2s1` (stereo not drawn) [Compound 85, 5-(2-aminobenzo[d]thiazol-4-yl)-2-(((2-(4-(2-hydroxyethyl)piperazin-1-yl)ethyl)amino)methylene)cyclohexane-1,3-dione], the IC50 fell in the range of 15 to 100 µM.

Regarding `O=C1CC2(CCC2)CC(=O)C1=CNCCN1CCN(CCO)CC1` [Compound 86, 7-(((2-(4-(2-hydroxyethyl)piperazin-1-yl)ethyl)amino)methylene)-spiro[3.5]nonane-6,8-dione], the IC50 was in the range of 15 to 100 µM.

Turning to `O=C1CC(c2ccc(-n3ccnc3)cc2)CC(=O)C1=CNCCN1CCN(CCO)CC1` (stereo not drawn) [Compound 87, 5-(4-(1H-imidazol-1-yl)phenyl)-2-(((2-(4-(2-hydroxyethyl)piperazin-1-yl)ethyl)amino)methylene) cyclohexane-1,3-dione], the IC50 lay within 15 to 100 µM.

In the case of `O=C1CC(c2cnc3ccccc3n2)CC(=O)C1=CNCCN1CCN(CCO)CC1` (stereo not drawn) [Compound 88, 2-(((2-(4-(2-hydroxyethyl)piperazin-1-yl)ethyl)amino)methylene)-5-(quinoxalin-2-yl)cyclohexane-1,3-dione], the IC50 was in the range of 3 to 15 µM.

For the molecule `O=C1CC(c2ccc(OCCN3CCOCC3)nc2)CC(=O)C1=CNCCN1CCN(CCO)CC1` (stereo not drawn) [Compound 89, 2-(((2-(4-(2-hydroxyethyl)piperazin-1-yl)ethyl)amino)methylene)-5-(6-(2-morpholinoethoxy)pyridin-3-yl)cyclohexane-1,3-dione], the IC50 lay within 100 to 1000 µM.

For `O=C1CC(c2cncnc2)CC(=O)C1=CNCCN1CCN(CCO)CC1` (stereo not drawn) [Compound 90, 2-(((2-(4-(2-hydroxyethyl)piperazin-1-yl)ethyl)amino)methylene)-5-(pyrimidin-5-yl)cyclohexane-1,3-dione], the IC50 is 100 to 1000 µM.

`O=C1CC(c2cnc(N3CCOCC3)nc2)CC(=O)C1=CNCCN1CCN(CCO)CC1` (stereo not drawn) [Compound 91, 2-(((2-(4-(2-hydroxyethyl)piperazin-1-yl)ethyl)amino)methylene)-5-(2-morpholino-pyrimidin-5-yl)cyclohexane-1,3-dione]: the IC50 is 15 to 100 µM.
